Measurements from patent US11219216B2, “Method of improving tolerance of plants to herbicides using seed insecticide treatments” (priority 2015, dated 2022).
Where two headings read alike, the source gives them in different places.

Experiments:
[1] = tested on: conventional rice (Roy J); assay type: in vivo
Description: This experiment was conducted at a farm located just north of Lonoke, Ark. in the summers of 2013 and 2014. The soil texture is a silt loam with a pH of 6.3. Conventional rice (Roy J) was planted on Apr. 30, 2013 and May 20, 2014 with a Hege cone drill calibrated to deliver a seeding rate of 90 pounds (lbs)/Acre on 7.5-inch rows. Plot size was 5×25 feet. The study was conducted with a randomized complete block design having 4 replications.
Treatments consisted of seed treatment and herbicide combinations. […] The second seed treatment was considered the “nontreated seed” which actually received equivalent amounts of azoxystrobin, mefenoxam and fludioxonil as the treated seed but without the insecticide thiamethoxam.
The herbicide treatments were applied at the 2-4 If growth stage of rice with a CO2 backpack sprayer calibrated to deliver 10 gallons of spray solution per acre. Herbicide treatments included Roundup PowerMax (5.5 lb ai/gallon formulation) applied at 0, 1, 2, and 4.0 oz product/A and Newpath 2AS (2 lb ai/gallon formulation) applied at 0, 0.25, 0.5 and 1.0 oz product/A. The plot area was maintained weed free with conventional rice herbicides and the rice was grown according to University of Arkansas recommendations for soil fertility.
Data collected included: percent visual injury at 7, 21, and 42 days after treatment (DAT) on a scale of 0 to 100 with 0 being no injury and 100 being complete crop death; canopy heights at 68 DAT using a yard stick and 1 meter square piece of cardboard, percent rice heading at 107 DAT, percent moisture, and grain yield at harvest. Data were analyzed and LSD's generated at the p=0.05 level of significance using ARM 9.1.4.

[2] = tested on: Ozark conventional soybean; conditions: for Soybean Injury (%) 10 DAT / Soybean Injury (%) 35 DAT: fungicide-only seed
Description: A field experiment was conducted in the summer of 2014 near Newport, Ark. to evaluate the effect of a soybean insecticide seed treatment, Cruiser Maxx, on herbicide injury to convention soybean. The conventional soybean variety Ozark was planted on 7-17-14 in plots measuring 7.5×20 feet in size. In each plot, half the drill rows were treated with Cruiser Maxx at 7 oz/cwt, and the other half were treated with only the fungicide portion of that treatment. Seeding rate was 125,000 seeds per acre. Seed were planted to a depth of 0.5 inches. Soil temperature at the time of planting and application of the PRE treatments was 62 degrees F.
Post emerge treatments included Roundup PowerMax (2 and 4 oz/A), Liberty (2 and 4 oz/A), dicamba (0.25 and 0.5 oz/A), 2,4-D (0.75 and 1.5 oz/A) and Permit at 0.5 and 1.0 oz/A applied at the third trifoliate stage. Herbicides were applied with a 4 nozzle boom calibrated to deliver 15 GPA using CO2 as a propellant.
Plots were visually rated for herbicide injury at 10 days after emergence and at 35 days after application of the POST treatments. The rating scale was 0 to 100 where 0=no injury and 100=complete death or desiccation of the plant. Means were separated using Fisher's protected LSD (0.05).

[3] = tested on: cotton; conditions: insecticide applied in-furrow; York et al. (1991); cited from earlier work
[4] = POST at third trifoliate, averaged across two rates (Roundup PowerMax 2 and 4, dicamba 0.25 and 0.5, 2,4-D 0.75 and 1.5, Permit 0.5 and 1.0 oz/A), Treated soybean (Cruiser Maxx 7 oz/cwt)
[5] = POST at third trifoliate, averaged across two rates (Roundup PowerMax 2 and 4, dicamba 0.25 and 0.5, 2,4-D 0.75 and 1.5, Permit 0.5 and 1.0 oz/A)
[6] = PRE, (T) = Treated soybean (Cruiser Maxx 7 oz/cwt), Metribuzin 0.671 lb/A, Dual Magnum 2.0 pts/A, Zidua 3.5 oz/A, Valor 2.0 oz/A, mixes at same rates
[7] = PRE, Metribuzin 0.671 lb/A, Dual Magnum 2.0 pts/A, Zidua 3.5 oz/A, Valor 2.0 oz/A, mixes at same rates

SMILES	Soybean Injury (%) 10 DAT (T) [2, 4] [%]	Soybean Injury (%) 35 DAT (T) [2, 4] [%]	Soybean Injury (%) 10 DAT [2, 5] [%]	Soybean Injury (%) 35 DAT [2, 5] [%]	clomazone injury to cotton [3]	other results
CN1COCN(Cc2cnc(Cl)s2)/C1=N\[N+](=O)[O-] [thiamethoxam]						heading ([1]; 107 DAT, all plots that received the insecticide in the seed treatment): 95-100%; yield higher for treated seed plots versus untreated or fungicide only plots ([1]; 2013, Newpath at either 0.25 or 0.5 oz/A): 100 bu/A; yield improved by addition of a seed treatment that included the insecticide ([1]; 2013, Roundup 4.0 oz/A): over 60 bushels
COc1c(Cl)ccc(Cl)c1C(=O)O [Dicamba, dicamba]	60	30	60	30		
CSc1nnc(C(C)(C)C)c(=O)n1N [Metribuzin, metribuzin]						Soybean Injury (%) 10 DAT (T) [2, 6]: 0%; Soybean Injury (%) 35 DAT (T) [2, 6]: 0%; Soybean Injury (%) 10 DAT [2, 7]: 0%; Soybean Injury (%) 35 DAT [2, 7]: 0%
CCOP(=S)(OCC)SCSCC [phorate]					greatly reduced	
CCOP(=S)(OCC)SCCSCC [disulfoton]					greatly reduced	
O=C(O)COc1ccc(Cl)cc1Cl [2,4-D]	15	5	15	5		
